Measurements reported in a melting point compilation (Tetko et al.; mined from patent text by program, amines drawn as free bases though some values may be those of a salt).

First: COC(=O)c1ccc(OC2CCCCO2)cc1 (stereo not given)
Second: CC(C(=O)O)c1ccc(O[Si](C)(C)C(C)(C)C)cc1 (stereo not given)
The melting point of the first is higher: 58 to 62 °C for the first, 52 to 54 °C for the second.

`CC(C(=O)O)c1ccc(-c2ccc(F)cc2)c(O)c1` (stereo not given) and `CCC(C(=O)O)N(C(=O)c1cccn1-c1ccc(F)cc1)c1ccc(N2CCCCC2)c(C#N)c1` (stereo not given) cannot be ordered by melting point: 138 to 142 °C for the first, 138 to 139 °C for the second.

First: C[Si](C)(C)C#Cc1ccc(O)cc1
Second: CC1CC=C(c2ccc(C(C)O)cc2)CC1 (stereo not given)
The melting point of the first is lower: 60 to 63.5 °C for the first, 65 to 67 °C for the second.

First: CN1CCN(c2cc3nc(C(C)(C)C)sc3cc2N=C=S)CC1
Second: COc1cc(OC)nc(N2CCN(Cc3ccc(CNC(C)=O)cc3)CC2)n1
The melting point of the first is lower: 124 to 126 °C for the first, 130 to 131 °C for the second.

First: COc1ccccc1C1c2cc(NC(=O)CC(C)(C)C)c(C)c(C)c2OC1(C)C (stereo not given)
Second: Cc1ccc(C2c3c(C)c(N4Cc5ccccc5C4)c(C)c(C)c3OC2(C)C)cc1 (stereo not given)
The melting point of the first is higher: 169 to 170 °C for the first, 141 to 143 °C for the second.

Compared with `COc1cc(C)c(N2C(=O)CS/C2=N/N=C\c2ccc(-c3ncn(-c4ccc(OC(F)(F)F)cc4)n3)cc2)c(C)c1`, `CCc1c(-c2ccc(OCc3ccccc3)cc2)c2cc(C(=O)OC)c3c(NC(C)=O)ccc1n23` is higher in melting point: 188 to 190 °C for the first, 210 to 213 °C for the second.

First: C=C1C(=O)c2ccccc2OC1(c1ccccc1)c1ccccc1
Second: O=C(O)/C(=C/c1cnc(-c2ccccc2)n1Cc1ccccc1Cl)Cc1ccccc1
The melting point of the first is lower: 165 to 167 °C for the first, 211 to 213 °C for the second.

First: COc1cc(F)c(C)cc1[N+](=O)[O-]
Second: COC(=O)c1cc(O)c(O)c([N+](=O)[O-])c1
The melting point of the first is lower: 71 to 74 °C for the first, 144 to 145 °C for the second.

First: C=CCN(CC=C)Cc1nc(-c2ncn3c2[C@@H]2CCN2C(=O)c2c(Cl)cccc2-3)no1
Second: O=C1CCC(N2Cc3c(OCc4cn5ccccc5n4)cccc3C2=O)C(=O)N1 (stereo not given)
The melting point of the first is lower: 165 to 170 °C for the first, 222 to 224 °C for the second.

Compared with `CC(C)(C=NO)Cc1ccc(Cl)c(Cl)c1`, `O=C(Nc1cccnc1)N1CCc2ccc(Cl)c(Cl)c21` is higher in melting point: 84 °C for the first, 178 to 180 °C for the second.

First: CN(C)Cc1nc2n(n1)-c1cccnc1N(c1ccccc1)C2
Second: CC(C(=O)N(C)C)n1nc(-c2ccccc2)cc1-c1ccccc1 (stereo not given)
The melting point of the first is higher: 135 to 139 °C for the first, 133 to 135 °C for the second.

Compared with `NC(Cc1nc2cc3ccccc3cc2nc1CP(=O)(O)O)C(=O)OCc1ccccc1` (stereo not given), `Nc1nc2ccccc2c2c1ncn2CCNC(=O)c1ccccc1` is higher in melting point: 215 °C for the first, 295 °C for the second.

Compared with `Cc1nc(N2CCN(CC(=O)NCc3ccc(F)cc3)C2=O)sc1C(=O)NCc1ccccc1`, `CCCCc1cc(Cc2ccc(C(=O)O)cc2)c2ccccc2n1` is lower in melting point: 232 to 234 °C for the first, 158 °C for the second.

First: COc1ccc2c(c1)Nc1cccc(S(C)(=O)=O)c1S2
Second: COc1ccc(CNc2nc(N)c(C(=O)c3cc(C)sc3C)s2)cc1
The melting point of the first is higher: 204 to 206 °C for the first, 175 °C for the second.

Compared with `CCCCCCCCCCCCNc1nc(NCC(O)C2CC(C)(C)NC(C)(C)C2)nc(NCC(O)C2CC(C)(C)NC(C)(C)C2)n1` (stereo not given), `COc1ccc(Nc2nc(NCCNC(=O)OC(C)(C)C)nc(NC3CCCCCC3)n2)cc1Cl` is lower in melting point: 107 to 109 °C for the first, 94 °C for the second.

First: CNC(=O)N1C2c3ccccc3OCC2(C(=O)OC)CN1C(=O)Nc1ccc(C(F)(F)F)cc1 (stereo not given)
Second: CNC(=O)N(C)c1nc(CC(=O)Nc2cccc(C(F)(F)F)c2)cs1
The melting point of the first is higher: 208 to 209 °C for the first, 125 to 127 °C for the second.

First: O=C(NS(=O)(=O)NCCc1cccs1)OCc1ccccc1
Second: O=C(C=Cc1ccccn1)c1ccc(OCc2ccccc2)cc1
The melting point of the first is lower: 129 to 131 °C for the first, 131 to 134 °C for the second.

First: O=C(O)CCCCCNC(=O)C(F)(F)F
Second: CCCCCCCC(=O)Nc1ccc([N+](=O)[O-])cc1
The melting point of the first is higher: 90 to 91 °C for the first, 80.9 to 81.6 °C for the second.

Compared with `O=C1CNc2cc([N+](=O)[O-])c(F)cc2O1`, `COc1ccsc1NC(=O)Nc1cc([N+](=O)[O-])ccc1O` is lower in melting point: 196 to 202 °C for the first, 173 °C for the second.

Compared with `Nc1c(SC(F)(F)F)c(C(=O)O)nn1-c1c(Cl)cc(C(F)(F)F)cc1Cl`, `Nc1c(SC(F)(F)F)c(C=O)nn1-c1c(Cl)cc(CC(F)(F)F)cc1Cl` is lower in melting point: 199 °C for the first, 140 to 143 °C for the second.

Compared with `CS(=O)(=O)c1ccc(-c2cc(C(F)(F)F)nn2-c2ccc(C#N)cc2)cc1`, `CC(=O)c1ccc(S(=O)(=O)Nc2ccc(C(F)(F)F)cn2)cc1` is higher in melting point: 140 to 142 °C for the first, 179 to 180 °C for the second.

Compared with `Nc1ccccc1CCN1CCCCC1`, `O=C1c2ccccc2C(=O)N1OC1CCCCCC1` is higher in melting point: 36 to 38 °C for the first, 110 to 112 °C for the second.

Compared with `O=C(O)c1ccc(OCCCc2ccc(OCCCC3CCCCC3)cc2)c(C(=O)NC2CCCC(C(=O)O)C2)c1` (stereo not given), `CCCCN(CC(=O)c1ccc(OCc2ccccc2)c2[nH]c(C(=O)OCCN3CCOCC3)cc12)Cc1ccccc1` is lower in melting point: 160 °C for the first, 149 to 150 °C for the second.

Compared with `COc1cc(C(C)(C)O)c(O)c2c1C(C)(C)CCC2(C)C`, `COc1cc(OC)c(CSC(C)(C)CCO)c(OC)c1` is lower in melting point: 140 °C for the first, 69 to 72 °C for the second.

First: CN(Cc1cc(C(F)(F)F)cc(C(F)(F)F)c1)C(=O)c1ncc2ccccc2c1-c1ccc(F)cc1
Second: Nc1cc(Oc2ccc3c(c2)CCN3C(=O)Nc2cccc(C(F)(F)F)c2)ncn1
The melting point of the first is lower: 134 to 135 °C for the first, 186 to 187 °C for the second.

Compared with `CCCC(=O)c1ccc2c(c1)C(C)C(=S)N2` (stereo not given), `CCCn1cc(C(=O)O)c2ccc(Cl)cc21` is higher in melting point: 133 to 136 °C for the first, 179 to 180 °C for the second.

First: O=Cc1cccc(/C=C/c2nc3cc(F)ccc3s2)c1
Second: O=Cc1cnc2sc3cc(F)ccc3n12
The melting point of the first is lower: 151 to 152 °C for the first, 182 to 183 °C for the second.

Compared with `CCCCNC(=O)c1ccc2c(c1)[C@H]1OCCN(CCC)[C@@H]1CC2` (relative stereo), `COc1cccc2c1C13CCN(C(=O)C4CCC4)C(C2)C1CCC(=O)C3` (stereo not given) is lower in melting point: 128 to 131 °C for the first, 125 to 126 °C for the second.

First: Cc1sc2nc(SCCCN3CCN(c4ccc5ccccc5n4)CC3)[nH]c(=O)c2c1C
Second: COc1ccc(N2CCN(c3c(C)c(C)c4c(c3C)CC(C)(CN3CCCCC3)O4)CC2)cc1 (stereo not given)
The melting point of the first is higher: 225 to 226 °C for the first, 122 to 125 °C for the second.

Compared with `CN(C(=O)C(F)(F)F)C1(C)CN(c2c(F)cc3c(=O)c(C(=O)O)cn(C4CC4)c3c2F)C1`, `Cc1nc2c(n1C1CC1)CCCC2=O` is lower in melting point: 291 to 294 °C for the first, 132 °C for the second.

Compared with `O=C1CC(c2ccc3oc4c(c3c2)CCCC4)CC(=O)N1`, `CCn1c(=O)oc2cc(N3C[C@H](C(=O)NC)OC3=O)ccc21` is higher in melting point: 184 to 193 °C for the first, 263 to 265 °C for the second.

Compared with `Nc1ccccc1NC(=O)c1ccc(CNC(=O)c2[nH]c(-c3ccc(O)cc3)cc2-c2ccccc2)cc1`, `O=C(Cc1ccc(Cl)cc1)Nc1cccc2nc(N[C@@H]3CCc4ccccc43)ccc12` is lower in melting point: 241 to 242 °C for the first, 170 °C for the second.

Compared with `COc1ccc(-n2cc(-c3cccc(C(=O)O)n3)cn2)cc1`, `CC(C)(C)OC(=O)N1CCC(c2ccc(COc3ccc(S(C)(=O)=O)cc3)cn2)CC1` is higher in melting point: 122 to 123 °C for the first, 140 to 142 °C for the second.

First: C=CCCn1c(C(=O)c2cc(C)cc(C#N)c2)c(C(C)C)c(=O)[nH]c1=O
Second: COc1cc(NC(=O)CC#N)cc(OC)c1OC
The melting point of the first is lower: 133 to 134 °C for the first, 146 to 147 °C for the second.

First: CCOC(=O)C(=CNc1cc(C)nn1CC)C(=O)OCC
Second: Cc1cc(CO)ccc1NC(=O)CN(C(=O)OC(C)(C)C)c1ccc(F)c(F)c1
The melting point of the first is lower: 60 to 67 °C for the first, 134 to 136 °C for the second.

Compared with `Cc1c(O)noc1C(=O)O`, `CC(=O)Nc1cc(CCl)c(I)cn1` is lower in melting point: 257 to 259 °C for the first, 173 to 174 °C for the second.

Compared with `CC(=O)OCCCn1cc(C2=C(c3ccccc3[N+](=O)[O-])C(=O)NC2=O)c2ccccc21`, `Cc1ccccc1C(=O)Nc1ccc(C(=O)N2CCc3cn(C)nc3-c3ccccc32)cc1` is higher in melting point: 77 to 78 °C for the first, 246 to 248 °C for the second.

Compared with `CSC1NC(N)=CC(=O)N1C` (stereo not given), `Nc1ccc(NNC=O)cc1` is lower in melting point: 255 °C for the first, 122 to 125 °C for the second.

First: CNc1ncnc2c1nnn2Cc1ccccc1F
Second: Nc1cc2c(Nc3ccc(F)c(Cl)c3)ncnc2cc1OCC1CC1
The melting point of the first is lower: 180 to 182 °C for the first, 208 °C for the second.

Compared with `Clc1ccc(-c2cc(-c3cccs3)[nH]n2)cc1`, `O=c1ccc(S(=O)(=O)c2oc3ccc(Cl)cc3c2-c2ccccc2)n[nH]1` is higher in melting point: 217 °C for the first, over 240 °C for the second.

First: O=C(O)CCP(=O)(O)c1ccccc1
Second: CC(C)(CC(=O)C(=O)Nc1cc2c(cc1Br)C(=O)OC2)c1ccccc1
The melting point of the first is higher: 158 to 161 °C for the first, 148 to 150 °C for the second.

Compared with `CCCCc1nc(C(C)(O)CC)c(C#N)n1C(c1ccccc1)(c1ccccc1)c1ccccc1` (stereo not given), `Cc1ccc(OCc2ccccc2)c(C(CCN2CC3CC3(C)C2)c2ccccc2)c1` (stereo not given) is lower in melting point: 90 to 93 °C for the first, 74.9 to 76 °C for the second.

First: CCN(CC)S(=O)(=O)c1cc(-c2csc(=Nc3ccc(Cl)cc3)n2C)ccc1Cl
Second: COC(=O)C1(NC(=O)Cc2cc(-c3ccc(Cl)cc3)ccc2Cl)CCC(F)(F)CC1
The melting point of the first is higher: 198 °C for the first, 146 to 147 °C for the second.

First: Cc1ccc2c(c1)C(C)(O)c1ccccc1C=C2 (stereo not given)
Second: Cc1cc(C(=O)C(C)N2CCC(O)(c3ccccc3)CC2)ccc1OCc1ccccc1 (stereo not given)
The melting point of the first is higher: 102 to 103 °C for the first, 98 to 99 °C for the second.

First: CNC(=O)N(O)C(C)c1cc(C(C)(C)C)c(O)c(C(C)(C)C)c1 (stereo not given)
Second: CNc1nc(C)c(-c2ccnc(Nc3cccc(CC(=O)OCCOC)c3)n2)s1
The melting point of the first is lower: 159 to 160 °C for the first, 193 to 195 °C for the second.

Compared with `CN(C)C(=O)Sc1ccc(C(=O)c2ccc([N+](=O)[O-])cc2)cc1`, `COc1cc([N+](=O)[O-])ccc1N1C(=O)C(=O)N(c2cccc(Cl)c2)C1=O` is lower in melting point: 198 to 199 °C for the first, 176 to 178 °C for the second.

Compared with `O=C(Nc1ccc(Cl)cn1)c1cc(Cl)ccc1NCC1CCN(C2CCOCC2)CC1`, `O=C1CCN(C(=O)c2ccc(Cl)cc2Cl)c2ccc(Cl)cc21` is lower in melting point: 192 to 194 °C for the first, 177 to 178 °C for the second.

Compared with `CCOC(=O)N1CCN(CCNc2ncnc3c2sc2nc(N4CCCC4)c4c(c23)CC(C)(C)OC4)CC1`, `Cc1c(C)c2c(c(C)c1O)CCC(C)(COc1ccc(CC3SC(=N)NC3=O)cc1)O2` (stereo not given) is higher in melting point: 97.8 to 99.1 °C for the first, 205 to 207 °C for the second.

First: Cc1sc(-c2ccccc2)nc1COc1ccc(COc2ncccc2CC#N)cc1
Second: CN(C)c1ccc(N=Nc2ccc(S(=O)(=O)NCc3ccc4c(c3)-c3n[nH]c(=O)c5cccc(c35)O4)cc2)cc1
The melting point of the first is lower: 161 to 162 °C for the first, over 300 °C for the second.

Compared with `C=C1CCC2=C(C1)CC(C)C1C2CCC2(C)C(O)CCC12` (stereo not given), `Nc1nc(Cl)nc2c1ncn2C1OC(COC2CC2)C(O)C1O` (stereo not given) is higher in melting point: 112 °C for the first, 122 to 124 °C for the second.
